Values of other authors as cited in US20220168203A1, “METHOD FOR PREPARING HAIR TREATMENTS AGENTS WITH ORGANIC C1-C6 ALKOXY-SILANES” (Henkel AG & Co. KGaA, priority 2019, published 2022).

Conditions: 25° C.

Row | solubility in water (in words) | solubility in water | Molecule
1 | highly soluble | – | O=C(O)C1=NN(c2ccc(S(=O)(=O)O)cc2)C(=O)C1N=Nc1ccc(S(=O)(=O)O)cc1 (stereo not shown) [Acid Yellow 23, 4,5-dihydro-5-oxo-1-(4-sulfophenyl)-4-((4-sulfophenyl)azo)-1H-pyrazole-3-carboxylic acid]
2 | – | 20 mg/mL | Acid Yellow 3
3 | – | above 40 g/L | O=[N+]([O-])c1cc([N+](=O)[O-])c2ccc(S(=O)(=O)O)cc2c1O [Acid Yellow 9, 8-hydroxy-5,7-dinitro-2-naphthalenesulfonic acid]

Row | Molecule | solubility in water (in words) | solubility in water
4 | O=S(=O)(O)c1ccc(N=Nc2c(O)ccc3ccccc23)cc1 [Acid Orange 7, 4-[(2-hydroxy-1-naphthyl)azo]benzene sulphonate] | – | more than 7 g/L
